Test results: DBAASP
Converted amounts (≈) assume the structure as drawn. Blank lines part the entries; values can stand above or below the molecule they belong to.

Experiments:
Test in all cases: ≥ marks a high value that may be exact or a test limit, other limits are often not marked, values filed in µg/mL are converted to µM
[1] = test system: Salmonella enterica subsp. enterica serovar Pullorum C79-13
[2] = test system: Salmonella enterica subsp. enterica serovar Typhimurium C77-31
[3] = test system: Salmonella enterica subsp. enterica serovar Typhi CMCC 50071
[4] = test system: Staphylococcus aureus ATCC 25923
[5] = test system: Salmonella enterica subsp. enterica CMCC 47020
[6] = test system: Listeria monocytogenes CMCC 54004
Escherichia coli UB1005 = test system: Escherichia coli UB1005
[7] = test system: Bacillus cereus CMCC 6303
[8] = test system: Cronobacter sakazakii ATCC 29544
[9] = test system: Salmonella enterica subsp. enterica serovar Typhimurium ATCC 14028
[10] = test system: Staphylococcus aureus CMCC 26074
[11] = test system: Franconibacter helveticus DSM 18390
[12] = test system: Staphylococcus xylosus DSM 20287
[13] = test system: Bacillus subtilis DSM 347
[14] = test system: Escherichia coli DSM 1116
[15] = test system: Escherichia coli DH5alpha
[16] = test system: Klebsiella pneumoniae KAY 2026
[17] = test system: Pseudomonas aeruginosa ATCC 15692
[18] = test system: Staphylococcus aureus Newman
[19] = test system: Streptococcus mutans JM11
[20] = test system: Staphylococcus epidermidis ATCC 35984
Staphylococcus aureus MR = test system: Staphylococcus aureus MR
[21] = test system: Escherichia coli KpC+001812446
[22] = test system: Klebsiella pneumoniae KpC+001825971
[23] = test system: Pseudomonas aeruginosa ATCC 27853
[24] = test system: Escherichia coli ATCC 25922
[25] = test system: Escherichia coli KpC+002101123
[26] = test system: Klebsiella pneumoniae ATCC 13883
[27] = test system: Corynebacterium glutamicum ATCC 13032
[28] = test system: Staphylococcus aureus ATCC 9144
Aureobasidium pullulans = test system: Aureobasidium pullulans
[29] = test system: Candida albicans ATCC 10231
[30] = test system: Bacillus subtilis IFO 3037
[31] = test system: Escherichia coli IFO 14237
[32] = test system: Staphylococcus aureus IFO 12732
[33] = test system: Pseudomonas aeruginosa IFO 12582
Escherichia coli ML-35 = test system: Escherichia coli ML-35
Bacillus megaterium Bm11 = test system: Bacillus megaterium Bm11
[34] = test system: Staphylococcus aureus 710A
[35] = test system: Batrachochytrium dendrobatidis

Compound: CC[C@H](C)[C@H](NC(=O)[C@@H](N)Cc1ccccc1)C(=O)N[C@@H](CCCN=C(N)N)C(=O)N[C@@H](CCCCN)C(=O)N[C@@H](Cc1ccccc1)C(=O)N[C@@H](CC(C)C)C(=O)N[C@@H](CCCCN)C(=O)N[C@@H](CCCCN)C(=O)N[C@@H](Cc1c[nH]c2ccccc12)C(=O)N[C@@H](CC(C)C)C(=O)N[C@@H](CC(C)C)C(N)=O [FIRKFLKKWLL]
MIC [15]: 5.47 µM (≈ 8.16 µg/mL)
MIC [16]: 2.98 µM (≈ 4.44 µg/mL)
MIC [17]: 14.4 µM (≈ 21.5 µg/mL)
MIC [18]: 5.62 µM (≈ 8.39 µg/mL)
MIC [19]: 2.86 µM (≈ 4.26 µg/mL)
MIC [20]: 5.11 µM (≈ 7.62 µg/mL)

Compound: CC[C@H](C)[C@H](NC(=O)[C@@H](NC(=O)[C@H](CO)NC(=O)[C@H](C)NC(=O)[C@@H](NC(=O)[C@H](CCCCN)NC(=O)[C@H](CCCCN)NC(=O)[C@@H](NC(=O)[C@@H](NC(=O)[C@H](CC(=O)O)NC(=O)[C@H](Cc1ccccc1)NC(=O)[C@H](CC(C)C)NC(=O)CNC(=O)[C@H](Cc1cnc[nH]1)NC(=O)CNC(=O)CN)C(C)C)[C@@H](C)CC)C(C)C)C(C)C)C(=O)NCC(=O)NCC(=O)N[C@@H](CC(C)C)C(N)=O [GGHGLFDVIKKVASVIGGL]
MIC (Staphylococcus aureus MR): 17 µM (≈ 31.7 µg/mL)
MIC [4]: 9 µM (≈ 16.8 µg/mL)
MIC [21]: ≥ 34 µM
MIC [22]: ≥ 34 µM
MIC [23]: > 34 µM
MIC [24]: 34 µM (≈ 63.5 µg/mL)
MIC [25]: 9 µM (≈ 16.8 µg/mL)
MIC [26]: ≥ 34 µM

Compound: CC(C)[C@H](NC(=O)[C@H](CCCCN)NC(=O)[C@H](C)NC(=O)[C@@H](NC(=O)[C@@H](NC(=O)[C@H](CCCN=C(N)N)NC(=O)[C@H](CCCN=C(N)N)NC(=O)[C@H](Cc1c[nH]c2ccccc12)NC(=O)[C@H](Cc1c[nH]c2ccccc12)NC(=O)CN)[C@@H](C)O)C(C)C)C(=O)N[C@@H](CCCN=C(N)N)C(=O)N[C@@H](CCCCN)C(N)=O [GWWRRTVAKVRK]
MIC [23]: 1.6 µM (≈ 2.47 µg/mL)
MIC [27]: 0.4 µM (≈ 0.617 µg/mL)
MIC [24]: 3.1 µM (≈ 4.78 µg/mL)
MIC [28]: 12.5 µM (≈ 19.3 µg/mL)
MIC (Aureobasidium pullulans): 12.5 µM (≈ 19.3 µg/mL)
MIC [29]: 6.3 µM (≈ 9.71 µg/mL)

Compound: CC[C@H](C)[C@H](NC(=O)[C@H](CC(N)=O)NC(=O)[C@H](CC(C)C)NC(=O)[C@H](CCCCN)NC(=O)[C@@H](NC(=O)[C@@H](NC(=O)[C@H](CC(=O)O)NC(=O)[C@@H](N)Cc1ccccc1)[C@@H](C)CC)[C@@H](C)O)C(=O)N[C@@H](CCCCN)C(=O)N[C@@H](CCCCN)C(=O)N[C@@H](CC(C)C)C(=O)N[C@H](C(=O)N[C@@H](CCCCN)C(=O)N[C@@H](C)C(=O)N[C@H](C(=O)N[C@H]1CSSC[C@@H](C(=O)N[C@@H](CCCCN)C(=O)N[C@H](C(=O)N[C@@H](CC(C)C)C(=O)N[C@@H](Cc2ccccc2)C(=O)N[C@@H](CC(=O)O)C(=O)N[C@@H](CCCCN)C(=O)N[C@@H](CCCCN)C(=O)N[C@@H](CCCCN)C(=O)N[C@@H](CCC(N)=O)C(=O)N[C@@H](CCC(=O)O)C(=O)O)C(C)C)NC(=O)[C@H](CCSC)NC(=O)[C@H](CO)NC(=O)[C@H](C)NC(=O)CNC(=O)[C@H](CCCCN)NC(=O)[C@H](CO)NC(=O)[C@H]([C@@H](C)CC)NC(=O)[C@H](C(C)C)NC(=O)[C@H](CCCCN)NC1=O)[C@@H](C)O)[C@@H](C)O [FDITKLNIKKLTKATCKVISKGASMCKVLFDKKKQE]
MIC [30]: ≥ 50 µM
MIC [31]: 6.25 µM (≈ 25.5 µg/mL)
MIC [32]: 6.25 µM (≈ 25.5 µg/mL)
MIC [33]: 25 µM (≈ 102 µg/mL)

Compound: CC[C@H](C)[C@H](NC(=O)[C@H](CCCCN)NC(=O)[C@H](CCCCN)NC(=O)[C@H](CC(C)C)NC(=O)[C@H](CC(C)C)NC(=O)CN)C(=O)NCC(=O)N[C@@H](CCCCN)C(=O)N[C@@H](CCCCN)C(=O)N[C@@H](C)C(=O)N[C@@H](CCCCN)C(=O)N[C@@H](CCCCN)C(=O)N[C@@H](C)C(=O)NCC(=O)N[C@@H](CCCCN)C(=O)N[C@@H](CCCCN)C(=O)N[C@@H](CC(C)C)C(=O)NCC(=O)N[C@@H](Cc1ccc(O)cc1)C(N)=O [GLLKKIGKKAKKAGKKLGY]
MIC [23]: 16 µM (≈ 32.5 µg/mL)
MIC (Escherichia coli ML-35): 4 µM (≈ 8.11 µg/mL)
MIC (Bacillus megaterium Bm11): ≥ 32 µM
MIC [9]: > 32 µM
MIC [34]: ≥ 32 µM

Compound: CC[C@H](C)[C@H](NC(=O)[C@@H](NC(=O)[C@@H]1CCCN1C(=O)[C@H](CC(C)C)NC(=O)[C@@H](N)Cc1ccccc1)[C@@H](C)CC)C(=O)N[C@@H](C)C(=O)N[C@@H](CO)C(=O)N[C@@H](CC(C)C)C(=O)N[C@@H](CC(C)C)C(=O)NCC(=O)N[C@@H](CCCCN)C(=O)N[C@@H](CC(C)C)C(=O)N[C@@H](CC(C)C)C(N)=O [FLPIIASLLGKLL]
MIC [35]: 28.6 µM (≈ 40 µg/mL)

The next lines start with the values.

MIC [1]: ≥ 256 µM
MIC [2]: ≥ 256 µM
MIC [3]: ≥ 128 µM
MIC [4]: > 256 µM
MIC [5]: ≥ 256 µM
MIC [6]: ≥ 128 µM
MIC (Escherichia coli UB1005): ≥ 256 µM
MIC [7]: ≥ 128 µM
MIC [8]: ≥ 256 µM
MIC [9]: 128 µM (≈ 213 µg/mL)
MIC [10]: ≥ 256 µM
Compound: CC[C@H](C)[C@H](NC(=O)[C@H](CCCN=C(N)N)NC(=O)[C@H](CCCCN)NC(=O)[C@H](Cc1c[nH]c2ccccc12)NC(=O)[C@@H](N)CCCN=C(N)N)C(=O)N[C@H](C(=O)N[C@H](C(=O)N[C@H](C(=O)N[C@@H](CCCN=C(N)N)C(=O)N[C@@H](CCCCN)C(=O)N[C@@H](CCCN=C(N)N)C(=O)N[C@@H](CCCN=C(N)N)C(N)=O)[C@@H](C)CC)C(C)C)C(C)C [RWKRIVVIRKRR]

MIC [11]: 1.08 µM (≈ 2.83 µg/mL)
MIC [12]: 0.764 µM (≈ 2 µg/mL)
MIC [13]: 1.08 µM (≈ 2.83 µg/mL)
MIC [14]: 2.16 µM (≈ 5.65 µg/mL)
Compound: CC[C@H](C)[C@H](N)C(=O)N[C@@H](C)C(=O)NCC(=O)N[C@@H](CCCCN)C(=O)N[C@H](C(=O)N[C@@H](C)C(=O)N[C@@H](CCCCN)C(=O)N[C@H](C(=O)N[C@@H](C)C(=O)NCC(=O)N[C@@H](CCCCN)C(=O)N[C@H](C(=O)N[C@@H](C)C(=O)N[C@@H](CCCCN)C(=O)N[C@H](C(=O)N[C@@H](C)C(=O)NCC(=O)N[C@@H](CCCCN)C(=O)N[C@H](C(=O)N[C@@H](C)C(=O)N[C@@H](CCCCN)C(=O)N[C@H](C(=O)N[C@@H](C)C(=O)NCC(=O)N[C@@H](CCCCN)C(=O)N[C@H](C(=O)N[C@@H](C)C(N)=O)[C@@H](C)CC)[C@@H](C)CC)[C@@H](C)CC)[C@@H](C)CC)[C@@H](C)CC)[C@@H](C)CC)[C@@H](C)CC [IAGKIAKIAGKIAKIAGKIAKIAGKIA]
